Test results reported in US8377913B2, “Vitamin D receptor activators and methods of making” (AbbVie Inc., priority 2007, dated 2013).

Columns and labels:
[1] = tested on: PAI-1 mRNA in human coronary artery smooth muscle cells (CASMC); assay: PAI-1 mRNA in CASMC; assay type: cell-based; settings: Homo sapiens
Protocol: (§1) Primary culture of human coronary artery smooth muscle cells (CASMC) (commercially available from Cambrex, Walkersville, Md.) were grown in smooth muscle growth medium SmGM-2 (commercially available from Lonza Bioscience) containing 5.5 mM glucose, 5% FBS, 50 μg/ml gentamicin, 50 ng/ml amphotericin-B, 5 μg/ml insulin, 2 ng/ml human recombinant fibroblast growth factor (hFGF), and 0.5 ng/ml human recombinant epidermal growth factor (hEGF) at 37° C. in a humidified 5% CO2-95% air atmosphere. Cells were grown to >80% confluence and used within five passages.
(§2) Real-time reverse transcription-PCR was performed with a MyiQ Real-Time PCR Detection System (BioRad, Hercules, Calif.). Each sample has a final volume of 25 μl containing 100 ng of cDNA, […] each of the forward and reverse PCR primers and […] of the TaqMan™ probe for the gene of interest (Applied Biosystems, Foster City, Calif.). Temperature conditions consisted of a step of 5 minutes at 95° C., followed by 40 cycles of 60° C. for 1 minute and 95° C. for 15 seconds. Data was collected during each extension phase of the PCR reaction and analyzed with the software package (BioRad, Hercules, Calif.). Threshold cycles were determined for each gene. […]

5/6 nephrectomized rats = assay: Aortic Calcification in Uremic Rats; assay type: in vivo, rat; settings: 5/6 NX rats, at <100 μg/kg, i.p. 3 times per week for 41 Days
Protocol: 5/6 nephrectomized rats: Male Sprague-Dawley, 5/6 NX rats (˜200 g) were obtained from Charles River. The nephrectomy was performed using a standard two-step surgical ablation procedure. Beginning approximately 2 weeks post-nephrectomy, rats were maintained on a hyperphosphatemia-inducing diet (0.9% phosphorus and 0.6% calcium) for the duration of the study to induce secondary hyperparathyroidism (SHPT). After four weeks on the special diet, rats received vehicle (5% ethanol/95% propylene glycol; 0.4 mL/kg; i.p.) or test agent 3 times per week for 41 Days. On Days 0, 13, and 41 blood was collected (24 hours post-dose).
To minimize bias induced by variance in the disease state, 5/6 NX rats were assessed after 4 weeks of high phosphorus diet (prior to treatment) and the following inclusion/exclusion criteria were applied to the rats for study: • Serum creatinine=0.8-2.0 mg/dL (sham controls=0.43±0.01 mg/dL; n=20) • Exclude: serum calcium≦8.5 mg/dL (sham controls=10.05±0.05 mg/dL; n=20) • Exclude: serum phosphorus>12 mg/dL (sham controls=7.09±0.12 mg/dL; n=20) • Exclude: iPTH<400 pg/mL (sham controls=430±33 pg/mL; n=20)
Measurement of PTH and serum mineral levels: Serum PTH was measured using a rat intact PTH ELISA kit (ALPCO/lmmutopics, Inc., Windham, N.H.). Serum calcium, phosphorus, creatinine and BUN concentrations were measured using an Abbott Aeroset® (Abbott, Abbott Park, Ill.). […]

[2] = tested on: Thrombospondin mRNA in human coronary artery smooth muscle cells (CASMC); assay: Thrombospondin mRNA in CASMC; assay type: cell-based; settings: Homo sapiens
Protocol: as §1, §2

5/6 NX uremic rats = assay: Study 2: left ventricular hypertrophy (LVH) in 5/6 NX uremic rats; assay type: in vivo, rat; settings: 1, 10 and 100 μg/kg, 3×/wk for 6 wks
Protocol: Study 2: To determine if treatment with Example 1 (1, 10 & 100 μg/kg) reduces left ventricular hypertrophy (LVH) in 5/6 NX uremic rats.
Methods: Previous studies have shown that the 5/6 NX rat is hypertensive and presents with left ventricular hypertrophy. Therefore, 5/6 NX rats were received from Charles River at 2 weeks uremia and fed TD04151 (0.6% Ca and 0.9 % P) 4 weeks prior to study. 5/6 NX rats were treated with Example 1 (1, 10 & 100 μg/kg) or vehicle (95% PG/5% EtOH) 3×/week for six weeks. On Days 0, 13 and 41 blood was drawn (24 hours post-dose). At the end of the six week treatment period, rats were anesthetized with isoflurane and echocardiography was performed. Left ventricular mass was determined according to the American Society of Echocardiography recommendations using the cube method. After euthanasia, direct measurements of left ventricular weight were obtained. Note: Vehicle treated SHAM and 5/6 NX rats (3×/week for six weeks) from previous studies were included in this study for comparison purposes. All values are mean±SEM. Data was analyzed using ANOVA and where noted t-test. * Indicates p<0.05 compared to SHAM.

Male, C57BL6, mice = assay: Normal Mouse Calcemia Model; assay type: in vivo
Protocol: Male, C57BL6, mice were obtained from Jackson Laboratories. The mice were habituated for four days while maintained on a normal diet (D10001, Research Diets Inc.). Treatment was initiated with vehicle (20% ethanol/30% propylene glycol/50% water, 0.05 mL, s.c.) or test agent administered over a three log dose range. The animals were dosed once daily for 3 days. Twenty-four hours after the last dose, animals were anesthetized with ketamine/xylazine (100/18 mg/kg) and bled by cardiac puncture for measurement of PTH and other end points.
Measurement of PTH and minerals: Calcium (Ca), serum phosphorus (Pi), creatinine and BUN were measured from serum using an Abbott Aeroset® (Abbott Laboratories, Abbott Park, Ill.). Blood ionized calcium (iCa) was determined using the i-STAT® system (Abbott Laboratories, East Windsor, N.J.). Serum PTH was measured using a mouse parathyroid hormone (PTH) EIA kit obtained from ALPCO/Immutopics, Inc. (Windham, N.H.). Selected data is shown is Table 6. The graphs in FIG. 4 give an indication of dose response. Notable is that Example 1 produced an approximately 30% reduction in PTH over at least a three log dose range without a concomitant elevation of serum calcium of greater than 1 mg/dL.
Data analysis: Mean±standard error of the mean was calculated for each group. One way ANOVA followed by a Dunnett's test was used to assess differences between vehicle and drug-treated groups. *p<0.05=significance.

[3] = over at least a three log dose range

- IC50 [1]: 10 pM
- effect on aortic calcification (5/6 nephrectomized rats): did not have an effect
- IC50 [2]: 4 pM
- concomitant elevation of serum calcium (Male, C57BL6, mice; [3]): ≤ 1 mg/dL
- 1 mg/dL Δ total Ca (Male, C57BL6, mice; s.c. once daily for 3 days, dose giving 1 mg/dL change in total Ca): >100 µg/kg
Structure (SMILES): C=C1[C@H](O)CC(=C/C=C2\CCC[C@]3(C)[C@@H]([C@H](C)COC(=O)C(C)(C)C)CC[C@@H]23)C[C@H]1O [Example 1, (2S)-2-[(1R,3R,7E, 17β)-1,3-dihydroxy-2-methylene-9,10-secoestra-5,7-dien-17-yl]propyl pivalate]
- exacerbation of LVH compared to controls (5/6 NX uremic rats): no exacerbation
- reduction in PTH (Male, C57BL6, mice; [3]): approximately 30%
- ED50 (Male, C57BL6, mice; sc, 72 h, s.c. once daily for 3 days, read-out: PTH ED50): 0.0105 mg/kg
